The first test has as its target human RIP1 kinase domain (2-375) (Homo sapiens (Human), UniProt Q13546). Put plainly: biochemical. The settings on record: RIP1 kinase inhibition, tight-binding apparent Ki, 50 nM enzyme, 50 μM ATP, 2 hours incubation.
Sequence of human RIP1 kinase domain (2-375) (Q13546 2-375): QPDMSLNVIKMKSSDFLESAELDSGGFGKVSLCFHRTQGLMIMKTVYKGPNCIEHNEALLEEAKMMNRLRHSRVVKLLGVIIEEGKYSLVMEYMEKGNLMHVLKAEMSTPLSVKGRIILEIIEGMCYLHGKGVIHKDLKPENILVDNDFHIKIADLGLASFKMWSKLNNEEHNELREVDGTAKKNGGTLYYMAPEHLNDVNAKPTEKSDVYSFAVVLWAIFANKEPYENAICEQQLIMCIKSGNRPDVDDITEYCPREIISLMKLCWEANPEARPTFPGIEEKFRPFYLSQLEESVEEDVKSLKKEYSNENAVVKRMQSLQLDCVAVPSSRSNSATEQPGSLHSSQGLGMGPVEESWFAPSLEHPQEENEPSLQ
Regarding `[2H]C1([2H])C[C@@H](c2ccccc2)n2nc(C(=O)C3CC3)nc21` (single isomer, unassigned) [Example 114], the Ki came out at 18 nM.
As for `O=C(c1nc2n(n1)[C@H](c1ccccc1)C[C@@H]2F)C1CCOCC1` (racemic) [Example 126, [rac-(5S,7S)-7-fluoro-5-phenyl-6,7-dihydro-5H-pyrrolo[1,2-b][1,2,4]triazol-2-yl]-tetrahydropyran-4-yl-methanone], the Ki turned out to be 57 nM.
Consider `CCC1(C(=O)c2nc3n(n2)[C@H](c2ccccc2)C[C@@H]3F)CC1` (racemic) [Example 125, (1-ethylcyclopropyl)-[rac-(5S,7S)-7-fluoro-5-phenyl-6,7-dihydro-5H-pyrrolo[1,2-b][1,2,4]triazol-2-yl]methanone], for which the Ki amounted to 4 nM.
With `O=C(c1nc2n(n1)[C@H](c1ccccc1F)CC2)C1CC1` (racemic) [Example 63, cyclopropyl-[rac-(5S)-5-(2-fluorophenyl)-6,7-dihydro-5H-pyrrolo[1,2-b][1,2,4]triazol-2-yl]methanone], the Ki was 10 nM.
On to `O=C(c1nc2n(n1)[C@H](c1ccccc1)C[C@@H]2F)[C@@H]1CCOC1` (racemic) [Example 132, [rac-(5S,7S)-7-fluoro-5-phenyl-6,7-dihydro-5H-pyrrolo[1,2-b][1,2,4]triazol-2-yl]-[rac-(3R)-tetrahydrofuran-3-yl]methanone], for which the Ki is less than 5 nM.
For `[2H][C@H]1C[C@@H](c2ccccc2)n2nc(C(=O)C3CC3)nc21` (single isomer, unassigned) [Example 111], the Ki came to 8.2 nM.
Consider `COCC(C)(C)C(=O)c1nc2n(n1)[C@H](c1ccccc1)C[C@@H]2F` (racemic) [Example 133, 3-methoxy-2,2-dimethyl-1-[rac-(5S,7S)-7-fluoro-5-phenyl-6,7-dihydro-5H-pyrrolo[1,2-b][1,2,4]triazol-2-yl]propan-1-one], for which the Ki is less than 5 nM.
Still for that read-out and setting: under `O=C(c1nc2n(n1)[C@H](c1ccccc1)C[C@@H]2F)C1CCCOC1` (mixture of isomers) [Example 127, [rac-(5S,7S)-7-fluoro-5-phenyl-6,7-dihydro-5H-pyrrolo[1,2-b][1,2,4]triazol-2-yl]-tetrahydropyran-3-yl-methanone] stands 16 nM; under `O=C(c1nc2n(n1)[C@H](c1ccccc1)C[C@@H]2F)[C@@H]1C[C@H]1C(F)(F)F` (racemic) [Example 161, [rac-(5S,7S)-7-fluoro-5-phenyl-6,7-dihydro-5H-pyrrolo[1,2-b][1,2,4]triazol-2-yl]-[rac-(1R,2R)-2-(trifluoromethyl)cyclopropyl]methanone], 50 nM.
Consider `O=C(c1nc2n(n1)[C@H](c1ccccc1)C[C@@H]2F)[C@H](O)C(F)(F)F` (racemic) [Example 134, rac-(2S)-3,3,3-trifluoro-2-hydroxy-1-[rac-(5S,7S)-7-fluoro-5-phenyl-6,7-dihydro-5H-pyrrolo[1,2-b][1,2,4]triazol-2-yl]propan-1-one], for which the Ki is 220 nM.
For the compound `O=C(CC1CCOCC1)c1nc2n(n1)[C@H](c1ccccc1)C[C@@H]2F` (racemic) [Example 136, 1-[rac-(5S,7S)-7-fluoro-5-phenyl-6,7-dihydro-5H-pyrrolo[1,2-b][1,2,4]triazol-2-yl]-2-tetrahydropyran-4-yl-ethanone], the Ki came to 32 nM.
Turning to `[2H][C@]1(Cl)C[C@@H](c2ccccc2)n2nc(C(=O)C3CC3)nc21` (racemic) [Example 119, cyclopropyl-[rac-(5S,7S)-7-chloro-7-deuterio-5-phenyl-5,6-dihydropyrrolo[1,2-b][1,2,4]triazol-2-yl]methanone], the Ki was found to be 36 nM.
Take `O=C(c1nc2n(n1)[C@H](c1ccccc1)C[C@@H]2F)[C@@H]1CC12CC2` (racemic) [Example 163, [rac-(5S,7S)-7-fluoro-5-phenyl-6,7-dihydro-5H-pyrrolo[1,2-b][1,2,4]triazol-2-yl]-[rac-(2R)-spiro[2.2]pentan-2-yl]methanone]: the Ki stood at 4 nM.
Turning to `[2H][C@]1(F)C[C@@H](c2ccccc2)n2nc(C(=O)C3CC3)nc21` (single isomer, unassigned) [Example 103], the Ki came out at 7.9 nM.
For `O=C(c1nc2n(n1)[C@H](c1ccccc1)C[C@@H]2F)[C@H]1CC12CC2` (racemic) [Example 162, [rac-(5S,7S)-7-fluoro-5-phenyl-6,7-dihydro-5H-pyrrolo[1,2-b][1,2,4]triazol-2-yl]-[rac-(2S)-spiro[2.2]pentan-2-yl]methanone], the Ki stood at 16 nM.
For `O=C(CC1CCCCO1)c1nc2n(n1)[C@H](c1ccccc1)C[C@@H]2F` (mixture of isomers) [Example 135, 1-[rac-(5S,7S)-7-fluoro-5-phenyl-6,7-dihydro-5H-pyrrolo[1,2-b][1,2,4]triazol-2-yl]-2-tetrahydropyran-2-yl-ethanone], the Ki is 180 nM.
Turning to `O=C(c1cc2n(n1)[C@H](c1ccccc1)C[C@@H]2F)C1CC1` (racemic) [Example 78, cyclopropyl-[rac-(4S,6S)-4-fluoro-6-phenyl-5,6-dihydro-4H-pyrrolo[1,2-b]pyrazol-2-yl]methanone], the Ki stood at 20 nM.
As for `CC(F)(F)[C@@H]1C[C@H](F)c2nc(C(=O)C3CC3)nn21` (racemic) [Example 122, cyclopropyl-[rac-(5S,7S)-5-(1,1-difluoroethyl)-7-fluoro-6,7-dihydro-5H-pyrrolo[1,2-b][1,2,4]triazol-2-yl]methanone], the Ki came out at 360 nM.
Still for that read-out and setting: under `O=C(COC(F)(F)F)c1nc2n(n1)[C@H](c1ccccc1)C[C@@H]2F` (racemic) [Example 142, 1-[rac-(5S,7S)-7-fluoro-5-phenyl-6,7-dihydro-5H-pyrrolo[1,2-b][1,2,4]triazol-2-yl]-2-(trifluoromethoxy)ethanone] stands 9 nM; under `N#CC1CC1C(=O)c1nc2n(n1)[C@H](c1ccccc1)C[C@@H]2F` (mixture of isomers) [Example 86, 2-[rac-(5S,7S)-7-fluoro-5-phenyl-6,7-dihydro-5H-pyrrolo[1,2-b][1,2,4]triazole-2-carbonyl]-cyclopropanecarbonitrile], 160 nM.
As for `O=C(c1nc2n(n1)[C@H](c1ccccc1)C[C@@H]2F)[C@H]1CCCN1` (racemic) [Example 128, [rac-(5S,7S)-7-fluoro-5-phenyl-6,7-dihydro-5H-pyrrolo[1,2-b][1,2,4]triazol-2-yl]-[rac-(2R)-pyrrolidin-2-yl]methanone], the Ki is 650 nM.

Still in this test, the particulars now being: tight-binding apparent inhibition constant (Ki app, Morrison equation), 50 nM enzyme, 50 μM ATP, 2 hours incubation.
As for `O=C(c1nc2n(n1)[C@H](c1ccccc1)C[C@@H]2F)C1(C(F)(F)F)CC1` (racemic) [Example 14, (rac-(5S,7S)-7-fluoro-5-phenyl-6,7-dihydro-5H-pyrrolo[1,2-b][1,2,4]triazol-2-yl)-[1-(trifluoromethyl)cyclopropyl]methanone], the Ki was 11.2 nM.
In the case of `CC(C)(C#N)C(=O)c1nc2n(n1)[C@H](c1ccccc1)C[C@@H]2F` (racemic) [Example 22, 3-(rac-(5S,7S)-7-fluoro-5-phenyl-6,7-dihydro-5H-pyrrolo[1,2-b][1,2,4]triazol-2-yl)-2,2-dimethyl-3-oxo-propanenitrile], the Ki was determined as 33.1 nM.
The same measure, in the same setting: the figure for `O=C(c1nc2n(n1)[C@@H](c1ccccc1)C[C@@H]2F)C1CC1` (racemic) [Example 18, cyclopropyl-[rac-(5R,7S)-7-fluoro-5-phenyl-6,7-dihydro-5H-pyrrolo[1,2-b][1,2,4]triazol-2-yl]methanone] is 235 nM; for `O=C(c1nc2n(n1)[C@H](c1ccccc1)C[C@@H]2F)C1(F)CC1` (single isomer, unassigned) [Example 61] it is 0.3 nM; for `O=C(c1nc2n(n1)[C@H](c1ccccc1)C[C@@H]2F)C1(CO)CC1` (racemic) [Example 58, [1-(hydroxymethyl)cyclopropyl]-[rac-(5S,7S)-7-fluoro-5-phenyl-6,7-dihydro-5H-pyrrolo[1,2-b][1,2,4]triazol-2-yl]methanone] it is 28.7 nM.
With `O=C(c1nc2n(n1)[C@H](c1ccccc1)C[C@@H]2F)c1cccs1` (racemic) [Example 41, (rac-(5S,7S)-7-fluoro-5-phenyl-6,7-dihydro-5H-pyrrolo[1,2-b][1,2,4]triazol-2-yl)-(2-thienyl)methanone], the Ki was determined as 26.7 nM.
Regarding `O=C(c1nc2n(n1)[C@H](c1ccccc1)C[C@@H]2F)C1CCCC1` (racemic) [Example 36, cyclopentyl--(rac-(5S,7S)-7-fluoro-5-phenyl-6,7-dihydro-5H-pyrrolo[1,2-b][1,2,4]triazol-2-yl)methanone], the Ki stood at 18.8 nM.
With `O=C(c1nc2n(n1)[C@H](c1ccccc1)C[C@@H]2F)C1(F)CC1` (racemic) [Example 53, (1-fluorocyclopropyl)-(rac-(5S,7S)-7-fluoro-5-phenyl-6,7-dihydro-5H-pyrrolo[1,2-b][1,2,4]triazol-2-yl)methanone], the Ki is 22.4 nM.
`O=C(c1nc2n(n1)[C@H](c1ccccc1)C[C@@H]2F)C1COC1` (racemic) [Example 57, oxetan-3-yl-[rac-(5S,7S)-7-fluoro-5-phenyl-6,7-dihydro-5H-pyrrolo[1,2-b][1,2,4]triazol-2-yl]methanone]: the Ki stood at 42.3 nM.
`O=C(c1nc2n(n1)[C@@H](c1ccccc1)C[C@H]2F)C1CC1` (stereo in doubt) [Example 35, cyclopropyl-[rac-(5R,7R)-7-fluoro-5-phenyl-6,7-dihydro-5H-pyrrolo[1,2-b][1,2,4]triazol-2-yl]methanone]: the Ki was more than 9400 nM.
As for `CCC(=O)c1nc2n(n1)[C@H](c1ccccc1F)CC2` (racemic) [Example 31, 1-[rac-(5S)-5-(2-fluorophenyl)-6,7-dihydro-5H-pyrrolo[1,2-b][1,2,4]triazol-2-yl]propan-1-one], the Ki turned out to be 7.39 nM.
With `O=C(Cc1ccccc1)c1nc2n(n1)[C@H](c1ccccc1)C[C@@H]2F` (racemic) [Example 7, 2-phenyl-1-[rac-(5S,7S)-7-fluoro-5-phenyl-6,7-dihydro-5H-pyrrolo[1,2-b][1,2,4]triazol-2-yl]ethanone], the Ki turned out to be 12.2 nM.
As to `CC(C)(C)C(=O)c1nc2n(n1)[C@H](c1ccccc1)C[C@@H]2F` (stereo in doubt) [Example 37, 2,2-dimethyl-1-[rac-(5S,7S)-7-fluoro-5-phenyl-6,7-dihydro-5H-pyrrolo[1,2-b][1,2,4]triazol-2-yl]propan-1-one], the Ki stood at 2830 nM.

Source of the values: US11098058B2, “Bicyclic ketone compounds and methods of use thereof” (Genentech, Inc., priority 2017, dated 2021).
